Patent US11712481B2, “Lipid nanoparticle formulations” (Acuitas Therapeutics, Inc., priority 2016, dated 2023)

Assays:
[1] = Particle size and polydispersity index by light scattering (Malvern Zetasizer/Nanosizer ZS); assay type: physicochemical; conditions: LNP 47.5:10:40.7:1.8
Description: Cationic lipid(s), DSPC, cholesterol and PEG-lipid were solubilized in ethanol at a desired molar ratio (e.g., 50:0 to 10:28.5 to 38.5:1.5 to 1.7 or 47.5:10:40.8:1.7). Lipid nanoparticles (LNP) were prepared at a total lipid to mRNA weight ratio of approximately 10:1 to 30:1. The mRNA was diluted to 0.2 mg/mL in 10 to 50 mM citrate buffer, pH 4. Syringe pumps were used to mix the lipid solution (i.e., LNP components solubilized in ethanol) with the mRNA aqueous solution at a ratio of about 1:5 to 1:3 (vol/vol) with total flow rates above 15 mL/min. The ethanol was then removed and the external buffer replaced with PBS by dialysis. Finally, the lipid nanoparticles were filtered through a 0.2 μm pore sterile filter. Lipid nanoparticle particle size was 55-95 nm diameter, and in some instances approximately 70-90 nm as determined by quasi-elastic light scattering using a Malvern Zetasizer Nano ZS (Malvern, UK).
(§1) LNP's were formulated by an in-line mixing process as described in Example 1. These formulations were prepared such that the mRNA to cationic lipid ratio was held constant (N/P=6.3). The size and polydispersity index data were generated using Malvern Nanosizer ZS. The diameters given are intensity weighted means. Encapsulation was determined using a fluorescent intercalating dye based assay (Ribogreen). […]
(§2) The effect of the proportion of mRNA to total lipid was investigated for a particular standard set of lipid proportions across three representative cationic lipids. LNP's were formulated by an in-line mixing process as described in Example 1. The lipid proportions were held constant at 47.5:10:40.7:1.8 for the cationic lipid, DSPC, Cholesterol and PEG-lipid respectively. The mRNA to lipid ratios are described in terms of the N/P ratio where N represents the moles of cationic lipid and P represents the moles of phosphate present as part of the nucleic acid backbone. Ratios described in this way are independent of the size of the nucleic acid. The size and polydispersity index data were generated using Malvern Nanosizer ZS. The diameters given are intensity weighted means. Encapsulation was determined using a fluorescent intercalating dye based assay (Ribogreen).

[2] = Encapsulation by fluorescent intercalating dye based assay (Ribogreen); assay type: physicochemical
Description: as §1, §2

[3] = test system: Photinus pyralis (firefly) luciferase mRNA expression in liver; assay: Luciferase mRNA in vivo evaluation using LNP compositions, liver; conditions: LNP 47.5:10:40.7:1.8, 1 mg/kg, mice
Description: (§3) Luciferase mRNA in vivo evaluation studies were performed in 6-8 week old female C57BL/6 mice (Charles River) 8-10 week old CD-1 (Harlan) mice (Charles River) according to guidelines established by an institutional animal care committee (ACC) and the Canadian Council on Animal Care (CCAC). Varying doses of mRNA-lipid nanoparticle were systemically administered by tail vein injection and animals euthanized at a specific time point (e.g., 4 hours) post-administration. Liver and spleen were collected in pre-weighed tubes, weights determined, immediately snap frozen in liquid nitrogen and stored at −80° C. until processing for analysis.
For liver, approximately 50 mg was dissected for analyses in a 2 mL FastPrep tubes (MP Biomedicals, Solon Ohio). ¼″ ceramic sphere (MP Biomedicals) was added to each tube and 500 μL of Glo Lysis Buffer—GLB (Promega, Madison Wis.) equilibrated to room temperature was added to liver tissue. Liver tissues were homogenized with the FastPrep24 instrument (MP Biomedicals) at 2×6.0 m/s for 15 seconds. Homogenate was incubated at room temperature for 5 minutes prior to a 1:4 dilution in GLB and assessed using SteadyGlo Luciferase assay system (Promega). Specifically, 50 μL of diluted tissue homogenate was reacted with 50 μL of SteadyGlo substrate, shaken for 10 seconds followed by 5 minute incubation and then quantitated using a CentroXS^3 LB 960 luminometer (Berthold Technologies, Germany). The amount of protein assayed was determined by using the BCA protein assay kit (Pierce, Rockford Ill.). Relative luminescence units (RLU) were then normalized to total μg protein assayed. To convert RLU to ng luciferase a standard curve was generated with QuantiLum Recombinant Luciferase (Promega). For a representative formulation having a combination of two cationic lipids, a four-hour time point was chosen for an efficacy evaluation of the lipid formulation.
(§4) The FLuc mRNA (L-6107) from Trilink Biotechnologies will express a luciferase protein, originally isolated from the firefly, Photinus pyralis. FLuc is commonly used in mammalian cell culture to measure both gene expression and cell viability. It emits bioluminescence in the presence of the substrate, luciferin. This capped and polyadenylated mRNA is fully substituted with 5-methylcytidine and pseudouridine.
LNP's were formulated by an in-line mixing process as described in Example 1. […] The size and polydispersity index data were generated using Malvern Nanosizer ZS. The diameters given are intensity weighted means. Encapsulation was determined using a fluorescent intercalating dye based assay (Ribogreen).

[4] = test system: Photinus pyralis (firefly) luciferase mRNA expression in spleen; assay: Luciferase mRNA in vivo evaluation using LNP compositions, spleen; conditions: LNP 47.5:10:40.7:1.8, 1 mg/kg, mice
Description: as §3, §4, §2

[5] = Determination of pKa of formulated lipids (TNS fluorescence assay); assay type: physicochemical; conditions: lipids of Formula I, formulated in LNP cationic lipid/DSPC/cholesterol/PEG-lipid 50/10/38.5/1.5 mol % or cationic lipid alone
Description: As described elsewhere, the pKa of formulated cationic lipids is correlated with the effectiveness of LNPs for delivery of nucleic acids (see Jayaraman et al, Angewandte Chemie, International Edition (2012), 51(34), 8529-8533; Semple et al, Nature Biotechnology 28, 172-176 (2010)). A representative preferred range of pKa is ˜5 to ˜7. […] Lipid nanoparticles comprising of cationic lipid/DSPC/cholesterol/PEG-lipid (50/10/38.5/1.5 mol %) or a cationic lipid alone in PBS at a concentration of 0.4 mM total lipid are prepared using the in-line process as described in Example 1. TNS was prepared as a 100 μM stock solution in distilled water. Vesicles were diluted to 24 μM lipid in 2 mL of buffered solutions containing 10 mM HEPES, 10 mM MES, 10 mM ammonium acetate, 130 mM NaCl, where the pH ranged from 2.5 to 11. An aliquot of the TNS solution was added to give a final concentration of 1 μM and following vortex mixing fluorescence intensity was measured at room temperature in a SLM Aminco Series 2 Luminescence Spectrophotometer using excitation and emission wavelengths of 321 nm and 445 nm. A sigmoidal best fit analysis was applied to the fluorescence data and the pKa was measured as the pH giving rise to half-maximal fluorescence intensity.

[6] = N/P 3:1, LNP cationic lipid/DSPC/Cholesterol/PEG-lipid 47.5:10:40.7:1.8

| Compound | PDI ([1]; N/P 3:1) | Size ([1]; N/P 3:1) | PDI ([1]; N/P 6:1) | Size ([1]; N/P 6:1) | PDI ([1]; N/P 12:1) | Size ([1]; N/P 12:1) | PDI ([1]; N/P 22:1) | Size ([1]; N/P 22:1) | Encapsulation [2, 6] | Encapsulation ([2]; N/P 6:1, LNP 47.5:10:40.7:1.8) | Encapsulation ([2]; N/P 12:1, LNP 47.5:10:40.7:1.8) | Encapsulation ([2]; N/P 22:1, LNP 47.5:10:40.7:1.8) | Liver Luc Activity ([3]; N/P 3:1) | Liver Luc Activity ([3]; N/P 6:1) | Liver Luc Activity ([3]; N/P 12:1) | Liver Luc Activity ([3]; N/P 22:1) | Spleen Luc Activity ([4]; N/P 3:1) | Spleen Luc Activity ([4]; N/P 6:1) | Spleen Luc Activity ([4]; N/P 12:1) | Spleen Luc Activity ([4]; N/P 22:1) | other results |
| --- | --- | --- | --- | --- | --- | --- | --- | --- | --- | --- | --- | --- | --- | --- | --- | --- | --- | --- | --- | --- | --- |
| CCCCCCC(CCCC)C(=O)OCCCCCCCCCN(CCCO)CCCCCCCCCOC(=O)C(CCCC)CCCCCC (stereo not shown) [III-45] | 0.089 | 87 nm | 0.068 | 74 nm | 0.074 | 65 nm | 0.083 | 57 nm | 75% | 86% | 91% | 94% | 13308 ng/g | 15395 ng/g | 16596 ng/g | 16005 ng/g | 410 ng/g | 356 ng/g | 243 ng/g | 353 ng/g |  |
| CCCCCCCCC(=O)N(CCCN(C)C)C(CCCCCCCCC(=O)OCC(CCCC)CCCCCC)CCCCCCCCC(=O)OCC(CCCC)CCCCCC (stereo not shown) [II-9] | 0.054 | 94 nm | 0.033 | 88 nm | 0.014 | 84 nm | 0.017 | 84 nm | 92% | 95% | 98% | 98% | 6727 ng/g | 12209 ng/g | 18330 ng/g | 12634 ng/g | 831 ng/g | 642 ng/g | 514 ng/g | 439 ng/g |  |
| CCCCCCCCC(CCCCCC)C(=O)OCCCCCCN(CCCCCCOC(=O)C(CCCCCC)CCCCCCCC)CCN(C)C (stereo not shown) [Compound I-5] | 0.072 | 86 nm | 0.028 | 81 nm | 0.026 | 75 nm | 0.039 | 81 nm | 94% | 96% | 98% | 99% | 7689 ng/g | 9509 ng/g | 12826 ng/g | 14538 ng/g | 188 ng/g | 236 ng/g | 184 ng/g | 247 ng/g |  |
| CCCCCCCCCCCCC(CCCCCCCCCC)C(=O)OCCCCCCN(CCCCCCOC(=O)C(CCCCCCCCCC)CCCCCCCCCC)CCN(C)C (stereo not shown) [Compound I-39] |  |  |  |  |  |  |  |  |  |  |  |  |  |  |  |  |  |  |  |  | pKa [5]: 5.82 |
